Reference: PubChem BioAssay (NCI)
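Five concentrations, 48 hours, 96-well plates. Abbreviation: GI50, concentration required for 50% inhibition of growth. TGI marks complete inhibition of growth.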

Assays:
Assay in all cases: NCI anticancer screen, dose series, 48 h
[1] = system: SK-MEL-2 melanoma
[2] = system: U251 CNS
[3] = system: 786-0 renal
[4] = system: SF-539 CNS
[5] = system: CCRF-CEM leukemia
[6] = system: PC-3 prostate
[7] = system: SW-620 colon
[8] = system: NCI-H23 lung
[9] = system: SNB-75 CNS
[10] = system: SK-MEL-5 melanoma
[11] = system: HCT-15 colon
[12] = system: ACHN renal
[13] = system: SR leukemia
[14] = system: SF-268 CNS
[15] = system: MOLT-4 leukemia
[16] = system: HT29 colon
[17] = system: HL-60(TB) leukemia
[18] = system: SK-MEL-28 melanoma
[19] = system: UACC-257 melanoma
[20] = system: MALME-3M melanoma
[21] = system: DU-145 prostate
[22] = system: EKVX NSCLC
[23] = system: A498 renal
[24] = system: UACC-62 melanoma
[25] = system: MCF7 breast
[26] = system: SNB-19 CNS
[27] = system: HOP-92 NSCLC
[28] = system: UO-31 renal
[29] = system: OVCAR-4 ovarian
[30] = system: CAKI-1 renal
[31] = system: HOP-62 NSCLC
[32] = system: COLO 205 colon
[33] = system: K-562 leukemia
[34] = system: MDA-MB-231 breast
[35] = system: M14 melanoma
[36] = system: OVCAR-5 ovarian
[37] = system: NCI-H522 lung
[38] = system: IGROV1 ovarian
[39] = system: SF-295 CNS
[40] = system: HS 578T breast
[41] = system: OVCAR-8 ovarian
[42] = system: OVCAR-3 ovarian
[43] = system: NCI/ADR-RES ovarian
[44] = system: NCI-H226 lung
[45] = system: HCT-116 colon
[46] = system: SN12C renal
[47] = system: HCC-2998 colon
[48] = system: A549 NSCLC
[49] = system: TK-10 renal
[50] = system: SK-OV-3 ovarian
[51] = system: LOX IMVI melanoma
[52] = system: RPMI-8226 leukemia
[53] = system: RXF 393 renal
[54] = system: NCI-H460 lung
[55] = system: KM12 colon
[56] = system: MDA-MB-435

Compound: N#C/C(=C1C=C/C(=N/O)C(Cl)=C/1)c1ccc(Cl)cc1
- GI50 [1]: 7.8 µM
- TGI [1]: 24.8 µM
- GI50 [2]: 5.7 µM
- TGI [2]: 20 µM
- GI50 [3]: 5.16 µM
- TGI [3]: 19.1 µM
- GI50 [4]: 3.16 µM
- TGI [4]: 11.9 µM
- GI50 [5]: 1.96 µM
- TGI [5]: 6.93 µM
- GI50 [6]: 4.99 µM
- TGI [6]: 71.1 µM
- GI50 [7]: 3.79 µM
- TGI [7]: 15.1 µM
- GI50 [8]: 25.9 µM
- TGI [8]: > 100 µM
- GI50 [9]: 3.78 µM
- TGI [9]: 18.4 µM
- GI50 [10]: 16.5 µM
- TGI [10]: 40.3 µM
- GI50 [11]: 6.67 µM
- TGI [11]: 77.7 µM
- GI50 [12]: 4.47 µM
- TGI [12]: 18.4 µM
- GI50 [13]: 1.36 µM
- TGI [13]: 4.05 µM
- GI50 [14]: 3.66 µM
- TGI [14]: 14.7 µM
- GI50 [15]: 2.35 µM
- TGI [15]: 7.65 µM
- GI50 [16]: 5.46 µM
- TGI [16]: 19.8 µM
- GI50 [17]: 1.24 µM
- TGI [17]: 5 µM
- GI50 [18]: 30.1 µM
- TGI [18]: > 100 µM
- GI50 [19]: 21.2 µM
- TGI [19]: > 100 µM
- GI50 [20]: 12.2 µM
- TGI [20]: 29.3 µM
- GI50 [21]: 1.98 µM
- TGI [21]: 4.1 µM
- GI50 [22]: 10.4 µM
- TGI [22]: 59.2 µM
- GI50 [23]: 3.07 µM
- TGI [23]: 20.4 µM
- GI50 [24]: 4.01 µM
- TGI [24]: 18 µM
- GI50 [25]: 2.42 µM
- TGI [25]: 8.89 µM
- GI50 [26]: 18.4 µM
- TGI [26]: > 100 µM
- GI50 [27]: 7.92 µM
- TGI [27]: 51.1 µM
- GI50 [28]: 3.33 µM
- TGI [28]: 13 µM
- GI50 [29]: 17 µM
- TGI [29]: 91.2 µM
- GI50 [30]: 3.63 µM
- TGI [30]: 14.1 µM
- GI50 [31]: 4.29 µM
- TGI [31]: 19.1 µM
- GI50 [32]: 12.2 µM
- TGI [32]: 31.1 µM
- GI50 [33]: 1.16 µM
- TGI [33]: 8.51 µM
- GI50 [34]: 7.24 µM
- TGI [34]: 23.4 µM
- GI50 [35]: 11.5 µM
- TGI [35]: 31.6 µM
- GI50 [36]: 12.7 µM
- TGI [36]: 43.4 µM
- GI50 [37]: 4.12 µM
- TGI [37]: 15.7 µM
- GI50 [38]: 2.66 µM
- TGI [38]: 7.89 µM
- GI50 [39]: 4.08 µM
- TGI [39]: 14.4 µM
- GI50 [40]: 6.65 µM
- TGI [40]: 44.3 µM
- GI50 [41]: 12.3 µM
- TGI [41]: 51.9 µM
- GI50 [42]: 3.97 µM
- TGI [42]: 13.7 µM
- GI50 [43]: 4.7 µM
- TGI [43]: 26.1 µM
- GI50 [44]: 7.59 µM
- TGI [44]: 27.3 µM
- GI50 [45]: 1.82 µM
- TGI [45]: 4.39 µM
- GI50 [46]: 2.99 µM
- TGI [46]: 8.02 µM
- GI50 [47]: 19.1 µM
- TGI [47]: 38.4 µM
- GI50 [48]: 15.6 µM
- TGI [48]: 46.4 µM
- GI50 [49]: 5.25 µM
- TGI [49]: 20.2 µM
- GI50 [50]: 15.7 µM
- TGI [50]: 41.6 µM
- GI50 [51]: 2.62 µM
- TGI [51]: 10.3 µM
- GI50 [52]: 1.61 µM
- TGI [52]: 11.8 µM
- GI50 [53]: 13.5 µM
- TGI [53]: 36.1 µM
- GI50 [54]: 3.8 µM
- TGI [54]: 15.2 µM
- GI50 [55]: 0.721 µM
- TGI [55]: 10.1 µM
- GI50 [56]: 1.96 µM
- TGI [56]: 8.45 µM
